Results on three molecules are retold here after US8133864B2, “PAR-2 agonist” (Kowa Company, Ltd., priority 2005, dated 2012).

Assay [1] has as its target T1, PAR-2 (Homo sapiens, UniProt P55085).
T1 sequence (P55085 26-397): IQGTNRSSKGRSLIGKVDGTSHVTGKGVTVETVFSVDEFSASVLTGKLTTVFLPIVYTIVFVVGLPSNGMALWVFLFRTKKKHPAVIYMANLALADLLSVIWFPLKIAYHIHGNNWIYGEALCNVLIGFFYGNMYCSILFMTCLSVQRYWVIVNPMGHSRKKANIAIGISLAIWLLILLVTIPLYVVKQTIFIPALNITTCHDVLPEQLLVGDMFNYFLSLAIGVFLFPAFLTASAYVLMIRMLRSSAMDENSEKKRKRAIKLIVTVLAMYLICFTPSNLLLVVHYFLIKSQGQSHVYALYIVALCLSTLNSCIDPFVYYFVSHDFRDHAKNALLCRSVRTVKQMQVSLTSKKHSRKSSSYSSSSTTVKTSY
The assay can be described thus: PAR-2 agonist-mediated intracellular calcium dynamics assay in HCT-15 cells (modified method of Howthorne et al.). It counts as cell-based. More on the design: HCT-15 cells, human colorectal cancer cell lines endogenously expressing high level of PAR-2; endogenous in cells; host or cells: HCT-15 human colorectal cancer cells. Conditions: for EC50: HCT-15 cells endogenously expressing PAR-2, Ca2+ sensitive fluorescent dye, 2.5 mM probenecid, serum-free RPMI. The source says:
The PAR-2 activation of peptide derivatives represented by the general formula (1) can be tested by various known methods. For example, the method of Hollenberg (Hollenberg, M.D., et al., Can. J. Physiol. Pharmacol., 75, 832-841(1997)), the method of Kawabata et al. (Kawabata, A., et al., J. Pharmacol. Exp. Ther., 288, 358-370(1999)), the method of Howthorne et al. (Howthorne et al., A High-Throughput Microtiter Plate-Based Calcium Assay for the Study of Protease-Activated Receptor 2 Activation, Analytical Biochemistry 290, 378-379(2001)), and the like can be used. The present inventors tested PAR-2 activation potency by using the modified method of Howthorne et al. More specifically the method is for assaying calcium dynamics in a cell expressing human PAR-2 intracellularly. In this assay, PAR-2 agonist mediated calcium dynamics (concentration variability) in a cell is measured by using a multiple-well plate reader wherein the cell has Ca^2+ sensitive fluorescent dye introduced and stimulated by PAR-2 agonist under probenecid, which inhibits anion-exchange transporter, present. HCT-15 cells, human colorectal cancer cell lines endogenously expressing high level of PAR-2, were plated in a black-wall clear-bottom 96 well plate. Subconfluent cells were labeled with Ca^2+ sensitive fluorescent dye (Calcium Assay Reagent, Molecular Devices) in a RPMI culture medium in the presence of 2.5 mM probenecid absence of serum, and incubated for 1 hour at 37 ° C. Thereafter, the cells were stimulated with test compounds at various concentrations, and fluorescence change was measured using a scanning fluorometer (Flex Station, Molecular Devices) using excitation wavelength of 485 nm and fluorescence wavelength of 525 nm (cut-off wavelength of 515 nm). As a comparative compound, SLIGKV(SEQ ID: NO 1) —OH which is known as PAR-2 activated peptide was used. The results are shown in TAB.1.

Assay [2] deals with T1, PAR-2. The settings on record: relative to TRAP (tethered receptor agonist peptide); cited from earlier work.

Counter-ions that a name gives are not always drawn.

In general, EC50 refers to the concentration at which the effect is half-maximal. For the molecule `O=C(CNC(=O)[C@H](CC1CCCCC1)NC(=O)c1ccco1)NCC(=O)N[C@@H](CCCN1CCCCC1)C(=O)NCc1ccccc1` [Example 1, (S)-2-[(2-furoyl)-β-cyclohexyl-L-alanyl-glycyl-glycyl-amino]-5-(1-piperidinyl)pentanoic acid benzyl amide], the half-maximal effective concentration (EC50) in assay [1] came out at 2.3 ± 0.3 µM. The “agonist activity against PAR-2 (result in words; comparator not given, presumably the comparison compound)” value in assay [1] (HCT-15 cells, calcium assay) is listed as “higher agonist activity”. Consider `O=C(CNC(=O)[C@H](CC1CCCCC1)NC(=O)c1ccco1)NCC(=O)N[C@@H](CCCN1CCCCC1)C(=O)NCCN1CCCCC1` [Example 2, (S)-2-[(2-furoyl)-β-cyclohexyl-L-alanyl-glycyl-glycyl-amino]-5-(1-piperidinyl)pentanoic acid N-[2-(1-piperidinyl)ethyl] amide dihydrochloride], for which the EC50 in assay [1] stood at 4.1 ± 0.4 µM. Consider Nα-benzoyl-Arg (NO2)-Leu-NH2, for which, in assay [2], the “intensity to activate PAR-2 relative to TRAP” value is recorded as “about 1/100”.
